Laboratory results taken from the METLIN SMRT retention time set (Domingo-Almenara et al. 2019).

Assay: gradient 5% acetonitrile 3 min, to 50% in 2 min, to 85% in 15 min, held 3 min, 100 µL/min
Conditions: column: Zorbax Extend-C18 2.1 x 50 mm; eluents: water / acetonitrile, 0.1% formic acid
How it was run: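 Retention time was recorded from adduct peaks, which were picked computationally and each inspected manually. Pure standards ran in mixtures of ~100 molecules on HPLC coupled to a quadrupole time-of-flight mass spectrometer, in positive and negative ionization mode, through a Zorbax Extend-C18 column (2.1 × 50 mm, 1.8 μm) at 100 μL/min. Eluents were water and acetonitrile, each with 0.1% formic acid.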

| SMILES | RP-LC retention time [s] |
| --- | --- |
| CCOc1ccccc1CN1CC(CO)C2(CCNCC2)C1 (centres undefined) | 520 |
| O=c1ccc(-c2ccc(F)cc2)nn1CCc1nc(-c2ccc(Br)cc2)no1 | 1110 |
| CC(C)NC(=O)C1CCCN(S(=O)(=O)c2c[nH]c(C(=O)N3CCCCCC3)c2)C1 (centres undefined) | 734 |
| O=S(=O)(NCc1cccnc1)c1ccc(Cl)c(-c2nnc(-c3ccccc3)o2)c1 | 707 |
| Cc1cccc2c(=O)n(C)c(CCC(=O)NCc3cc(F)ccc3F)nc12 | 814 |
| CNC(=O)NC1CCN(C(=O)c2ccc(F)cc2)C1 (centres undefined) | 600 |
| CCOc1ccccc1CN1C[C@@H](CO)[C@H](c2ccncc2)C1 | 620 |
| Cc1cccc(-c2noc(Cc3nc(-c4ccc(F)cc4)cs3)n2)c1 | 1260 |
| Cc1ccc(NC(=O)CCCn2cccc2)cc1F | 874 |
| COc1cccc(-c2nc(-c3cccc(-c4ccnn4C)c3)no2)c1 | 1120 |
| CC1=C(C(=O)OC(C)C)C(c2cccc(Oc3ccccc3)c2)NC(=O)N1 (centres undefined) | 938 |
| O=C(NCc1cccnc1)c1ccc(CN2CCN(Cc3ccc(F)cc3)C(=O)C2=O)cc1 | 597 |
| COc1cccc2c1OC1(C)CC2NC(=O)N1c1cccc(C(=O)O)c1 (centres undefined) | 645 |
| O=C(O)c1ccc(Nc2nc(-c3ccc(Cl)cc3Cl)nc3ccccc23)cc1 | 828 |
| Cc1[nH]c(C(=O)Nc2cccc(Br)c2)c(C)c1S(=O)(=O)N1CCCC1 | 971 |
| COc1ccc(C(=O)NC2c3ccccc3-c3ccccc32)cc1OC | 861 |
| Cc1cc2c(c(=O)n(-c3ccccc3)c(=O)n2CC(=O)Nc2ccc(Cl)cc2F)n1C | 873 |
| CCN(CC)S(=O)(=O)c1c(C)nc2sc(C)nn12 | 760 |
| CCN(CC)CCNc1ncnc2onc(-c3cccc(Cl)c3)c12 | 660 |
| Cc1ccc(S(=O)(=O)N2CC(=O)N(c3cccc(F)c3)C(C)(C(=O)NCCC(C)C)C2)cc1 (centres undefined) | 1020 |
| Cc1cccc(NC(=O)Cn2cnc3c(sc4nc(-c5ccccc5)ccc43)c2=O)c1C | 1020 |
| CC(C)CN1C(=O)c2cccn2CC1C(=O)NCC1CC1 (centres undefined) | 731 |

| SMILES | RP-LC retention time [s] |
| --- | --- |
| CN(C)c1ccc(-c2nc3ncccn3c2Nc2cccc(C(F)(F)F)c2)cc1 | 765 |
| COCCCNC(=O)CCCn1c2ccccc2c2cnn(C)c(=O)c21 | 688 |
| CN1C(=O)C2(CCN(C(=O)Nc3ccc4c(c3)OCO4)C2)c2ccccc21 (centres undefined) | 752 |
| COc1ccc2cc(-c3nc(-c4ccc(S(C)=O)cc4)[nH]c3-c3ccncc3)ccc2c1 (centres undefined) | 682 |
| O=C(Cn1cccc(-c2nc(-c3ccc(Cl)cc3)no2)c1=O)Nc1ccc(F)cc1 | 956 |
| O=C(CCc1c(-c2ccccc2)nc2ccccn12)Nc1ccc(F)cc1Cl | 795 |
| O=C(c1ccc(Cl)nc1)c1cccs1 | 897 |
| COc1cc(-c2ccccc2)nc2ccc(NS(=O)(=O)c3ccc(NC(C)=O)cc3)cc12 | 653 |
| O=C(NCc1ccco1)c1cc(C2CC2)on1 | 717 |
| COc1ccc(N2CCN(C3=NS(=O)(=O)c4ccccc43)CC2)cc1 | 780 |
| CCn1ccnc1CC1COc2ccccc2O1 (centres undefined) | 682 |
| CC(=O)c1cccc(NC(=O)Cn2c(=O)n(-c3ccc(C)cc3)c(=O)c3c2cc(C)n3C)c1 | 819 |
| COc1ccc(OC)c(C(O)CN2CCN(c3cc(C)ccc3C)CC2)c1 (centres undefined) | 758 |
| CC(C)N1CCN(C(=O)CN2CCN(Cc3ccccc3)C2=O)CC1 | 565 |
| O=C(c1ccc2ccccc2n1)N1CCN(C(=O)c2nnn3c2COC(c2ccccc2)C3)CC1 (centres undefined) | 833 |
| O=C(NCCN1CCCCC1)C1CCc2sc(C(=O)N3CCCC3)cc2C1 (centres undefined) | 534 |
| COc1ccc2c(c1)C1(CCN(C(=O)c3ccccc3Cl)C1)C(=O)N2 (centres undefined) | 708 |
| CC(=O)Nc1ccc(Br)cc1C(=O)C(=O)NCCc1c[nH]c2ccccc12 | 876 |
| Cn1ccc(C(=O)Nc2ccc(Cl)cc2C(=O)c2ccccc2)n1 | 1010 |
| O=C(NCCCN1CCc2ccccc2C1)C1CCCN(S(=O)(=O)N2CCCCCC2)C1 (centres undefined) | 682 |
| COc1ccc(CNC(=O)Cn2c(=O)cc(-c3nc(C)no3)c3ccccc32)cc1OC | 746 |
| COc1ccc(C2C(C(=O)Nc3ccc4c(c3)OCO4)c3cc(OC)c(OC)cc3C(=O)N2C)cc1 (centres undefined) | 798 |

Next, values leading:

| RP-LC retention time [s] | SMILES |
| --- | --- |
| 613 | COCCCNC(=O)N1CCCN(c2nc3cc(F)ccc3n3cccc23)CC1 |
| 660 | CCCNc1nnc(-c2nc(C3CC3)no2)c2ccccc12 |
| 568 | NC(=O)C1CCN(C2CC(=O)N(c3ccc4c(c3)OCCO4)C2=O)CC1 (centres undefined) |
| 696 | CCCn1nc2ccc(S(=O)(=O)N3CCOCC3)cn2c1=O |
| 830 | COc1ccccc1-c1noc(C2CCCN2C(=O)c2ccc3cc[nH]c3c2)n1 (centres undefined) |
| 610 | COc1ccc(C2(C(=O)N3CCN(C(=O)c4cc(-c5ccncc5)n[nH]4)CC3)CC2)cc1 |
| 698 | Cc1cc(=O)n(CC(=O)Nc2cc(F)ccc2F)c(N2CCOCC2)n1 |
| 979 | COc1ccc(CC(=O)N2CCc3cc(-c4noc(C)n4)ccc32)cc1Cl |
| 1210 | CSc1ccccc1NC(=O)c1c(C)sc2ncnc(N3CCCC(C)C3)c12 (centres undefined) |
| 710 | CN1C(=O)C(=C2CCCC2)c2cc(S(=O)(=O)N3CCN(c4ccccn4)CC3)ccc21 |
| 762 | O=C(N1CCCC1)N1CCN(c2ccccc2F)CC1 |
| 680 | CCCNc1cc(N2CCC(CCC(=O)NCc3ccccc3F)CC2)ncn1 |
| 679 | CNC(=O)N1CC(c2nc(-c3ccccc3)no2)C2(CCOCC2)C1 (centres undefined) |
| 712 | COc1ccc(NC(=O)N(C)CC2CCOCC2)cc1Cl |
| 731 | CC(=O)N1CCC(C(=O)NCc2ccc(-c3nc(-c4cccs4)no3)s2)CC1 |
| 806 | O=S(=O)(c1cc(F)cc(F)c1)N1CCCC(Cn2c(C3CC3)nc3cccnc32)C1 (centres undefined) |
| 843 | COCCN1C(=O)c2ccccc2C(C(=O)NC2CCCC2)C1c1cccs1 (centres undefined) |
| 876 | O=C(CCC(=O)N1CCCC1c1nc2ccccc2s1)N1CCc2ccccc21 (centres undefined) |
| 854 | CCCN1C(=O)c2cc(C(=O)NCc3ccc(C)cc3)nn2CC1(C)C(=O)NC1CCCC1 (centres undefined) |
| 1070 | O=C(NCCCc1ccccc1)c1nnc(-c2ccc(S(=O)(=O)N3CCCCC3)cc2)o1 |
| 636 | CCOc1ccc(-n2c(CN3CCN(C(=O)NC4CCCC4)CC3)nc3cccnc32)cc1 |
| 752 | O=C(C1CC(=O)N(c2n[nH]c3cccc(F)c23)C1)N1CCc2ccccc2C1 (centres undefined) |
| 805 | O=C(Cc1cccs1)Nc1nnc(SCC(=O)N2CCCc3ccccc32)s1 |

| RP-LC retention time [s] | SMILES |
| --- | --- |
| 1030 | O=C(Cn1cccc1-c1nc(-c2ccc3c(c2)OCO3)no1)Nc1ccc(F)c(Cl)c1 |
| 650 | O=C(NCCN1CCOCC1)c1csc(N2CCN(c3ccccc3)CC2)n1 |
| 590 | CN(Cc1ccc(Cl)c(F)c1)C1CCc2nnc(C3CCOCC3)n2CC1 (centres undefined) |
| 651 | Cc1c(CC(=O)NC2CC2)c(=O)n2nc(-c3ccccc3)nc2n1C |
| 785 | O=C(NCc1cccc(Cl)c1)c1ccc(CN2CCN(C3CCCC3)C(=O)C2=O)cc1 |
| 579 | CCCN1CCN(c2ncc3c(n2)CCN(Cc2ccc(OCC)c(OCC)c2)C3)CC1 |
| 926 | CCc1c(C2CCN(C(=O)Nc3ccc(F)c(Cl)c3)CC2)noc1N |
| 609 | COc1ccc(-c2nc3cnccn3c2Nc2ccc(C(=O)N3CCOCC3)cc2)cc1OC |
| 830 | COc1ccccc1NC(=O)N1CCC(n2cnc3c(Cl)cccc3c2=O)CC1 |
| 863 | O=C1CCc2cc(S(=O)(=O)NCc3ccccc3Cl)cc3c2N1CCC3 |
| 1000 | CCOC(=O)c1[nH]c(C)c(CN(CC2CCCO2)C(=O)c2ccc(Cl)cc2)c1C (centres undefined) |
| 915 | Cn1cccc1CN(C(=O)c1ccc(F)cc1Cl)C1CC1 |
| 648 | CCOc1ccc(NC(=O)N2CCN(c3cnn4c(C)nnc4c3)CC2)cc1 |
| 791 | Cc1ccc(NC(=O)C2CCCN2S(=O)(=O)c2cc3c(cc2C)NC(=O)CO3)cc1Cl (centres undefined) |
| 922 | CCOc1ccc(C(=O)N2CCC3(CC2)N=C(c2ccc(Cl)cc2)NO3)cc1 |
| 783 | COCCNc1c(-c2cccc(F)c2)nc2sc(C(=O)N3CCCC3)c(C)n12 |
| 800 | Cc1cc(C)c(C(=O)N2CCC(CC(=O)NCc3ccc(Cl)cc3)CC2)[nH]1 |
| 654 | Cn1nc(-c2ccccc2F)c2cc(C(=O)N3CCN(c4ccccn4)CC3)sc21 |
| 944 | CCCc1noc(-c2ccnc(-n3cnc(C(=O)N4CCCC(C)C4)c3)c2)n1 (centres undefined) |
| 726 | CCC(=O)N1CCc2cc(N3CC(C(=O)N4CCC(C)CC4)CC3=O)ccc21 (centres undefined) |
| 796 | CCc1nc(-c2csc(S(=O)(=O)N3CCCC(C(=O)N4CCOCC4)C3)c2)no1 (centres undefined) |
| 619 | CC(C)n1c(CN2CCOCC2)nc2cc(NC(=O)c3ccco3)ccc21 |
